Values after ≈ are worked out from the molar mass of the structure shown. Read-outs that look alike come from different tables or passages of the source.
Legend:
[1] = test system: rifampin-resistant S. aureus B93-728M; assay: microbe, parasite or virus in culture; type: cell-based, Staphylococcus aureus; settings: strain B93-728M
Protocol: (§1) The antibacterial effect of the rifamycin derivative (1) against rifampin-resistant Staphylococcus aureus bacterial strains was determined. The tested bacterial strains were isolated from a variety of animal diseases as well as laboratory strains.
(§2) All bacteria were maintained on 3 mm glass beads immersed in trypticase soy broth (BBL Microbiology Systems, Cockeysville, Md.) with 10% glycerol and held at −70° C. until revived. Prior to testing, the organisms were subcultured on tryptose blood agar base (Difco, Detroit, Mich.) supplemented with 5% sheep blood for 24 hours at 35° C.
(§3) The compounds were dissolved in 95% ethanol and diluted to 10% ethanol in sterile, distilled water except for the compounds used in the in vivo testing where saline was used to dilute the original ethanol/drug suspension. Further dilutions were conducted in water or saline.
(§4) MICs were determined using the microbroth dilution method. In addition to the test organisms, the following quality control strain also was tested: Staphylococcus aureus ATCC 29213. The results are shown in Table 5, wherein R is the alkyl group R in the rifamycin derivative (1).

[2] = test system: rifampin-resistant S. aureus 30859; assay: microbe, parasite or virus in culture; type: cell-based, Staphylococcus aureus; settings: strain 30859
Protocol: as §1, §2, §3, §4

[3] = test system: rifampin-resistant S. aureus 31068; assay: microbe, parasite or virus in culture; type: cell-based, Staphylococcus aureus; settings: strain 31068
Protocol: as §1, §2, §3, §4

[4] = test system: rifampin-resistant S. aureus 30860; assay: microbe, parasite or virus in culture; type: cell-based, Staphylococcus aureus; settings: strain 30860
Protocol: as §1, §2, §3, §4

[5] = test system: rifampin-resistant S. aureus 30871; assay: microbe, parasite or virus in culture; type: cell-based, Staphylococcus aureus; settings: strain 30871
Protocol: as §1, §2, §3, §4

[6] = test system: rifampin-resistant S. aureus 30858; assay: microbe, parasite or virus in culture; type: cell-based, Staphylococcus aureus; settings: strain 30858
Protocol: as §1, §2, §3, §4

[7] = test system: rifampin-resistant S. aureus 30867; assay: microbe, parasite or virus in culture; type: cell-based, Staphylococcus aureus; settings: strain 30867
Protocol: as §1, §2, §3, §4

[8] = test system: rifampin-resistant S. aureus 30862; assay: microbe, parasite or virus in culture; type: cell-based, Staphylococcus aureus; settings: strain 30862
Protocol: as §1, §2, §3, §4

[9] = test system: rifampin-resistant S. aureus 30865; assay: microbe, parasite or virus in culture; type: cell-based, Staphylococcus aureus; settings: strain 30865
Protocol: as §1, §2, §3, §4

[10] = test system: rifampin-resistant S. aureus 30863; assay: microbe, parasite or virus in culture; type: cell-based, Staphylococcus aureus; settings: strain 30863
Protocol: as §1, §2, §3, §4

[11] = test system: rifampin-resistant S. aureus 30869; assay: microbe, parasite or virus in culture; type: cell-based, Staphylococcus aureus; settings: strain 30869
Protocol: as §1, §2, §3, §4

[12] = test system: rifampin-resistant S. aureus 12637; assay: microbe, parasite or virus in culture; type: cell-based, Staphylococcus aureus; settings: strain 12637
Protocol: as §1, §2, §3, §4

[13] = test system: rifampin-resistant S. aureus 30888; assay: microbe, parasite or virus in culture; type: cell-based, Staphylococcus aureus; settings: strain 30888
Protocol: as §1, §2, §3, §4

S. aureus B83-1 = assay: Mutation frequency for resistance, strain B83-1; type: cell-based, Staphylococcus aureus
Protocol: (§5) The mutation frequency for development of resistance to the rifamycin derivative (1) as compared to rifampin was determined with selected Staphylococcus aureus strains.
(§6) Four S. aureus strains were used: S. aureus 30857, a rifampin-resistant isolate: S. aureus 6097, a strain used in the mouse mastitis test and originally from a case of gangrenous bovine mastitis; S. aureus B83-1, derived from the Newbould 305 strain; and S. aureus ATCC 29213, the in vitro control stain recommended by NCCLS.
as §2, with “S. aureus strains” for “bacteria”, “strains” for “organisms”
(§7) These compounds were dissolved in 95% ethanol, a solution which was then diluted to 10% ethanol with sterile distilled water. Further dilutions were conducted in water.
(§8) The mutation frequency for development of resistance to the compounds tested was determined by the following method. A single colony of each strain was removed from the surface of a blood agar plate with a cotton swab, suspended in 5 ml of Mueller-Hinton broth (BBL), and streaked on the entire surface of five Mueller-Hinton agar plates. The plates were incubated overnight under aerobic conditions at 35° C., growth was removed from the agar using a sterile cotton swab, and the bacteria were suspended in 10 ml physiological saline. This bacterial suspension was the inoculum for the mutation frequency determinations. Standard plate counts were performed on the inoculum by performing serial dilutions and plating a 0.1 ml aliquot on the surface of ten Mueller-Hinton agar plates at each concentration. The plates were incubated for 18-24 hours at 35° C. under aerobic conditions and colony counts performed. Mean bacterial counts were calculated for the inoculum with each strain.
(§9) A 0.1 ml aliquot of the inoculum was then used to inoculate the entire surface of ten plates each containing 1, 10, and 100 μg/ml of the test antimicrobial agents. The plates were incubated for 18-24 hours at 35° C. under aerobic conditions and colony counts performed. Mean bacterial counts were calculated for each antimicrobial concentration and the mutation frequency calculated by dividing the number of colonies which grew on the drug containing media by the inoculum size.

Oral toxicity in mice = type: in vivo; settings: orally administered to mice, 1,000 mg/kg
[14] = test system: rifampin-resistant S. aureus isolated from diseased animals; type: cell-based, Staphylococcus aureus; settings: range over the 13 rifampin-resistant strains
Protocol: as §1, §2, §3, §4

S. aureus 6097 = assay: Mutation frequency for resistance, strain 6097; type: cell-based, Staphylococcus aureus
Protocol: as §5, §6
as §2, with “S. aureus strains” for “bacteria”, “strains” for “organisms”
as §7, §8, §9

[15] = Staphylococcus aureus, read-out: MIC

COC1/C=C/OC2(C)Oc3c(C)c(O)c4c(=O)c(c5oc6cc(N7CCN(C)CC7)cc(O)c6nc-5c4c3C2=O)NC(=O)/C(C)=C\C=C\C(C)C(O)C(C)C(O)C(C)C(OC(C)=O)C1C (stereo not shown) [R = methyl]
MIC [1]: 0.5 µg/mL (≈ 0.556 µM) | MIC [2]: 0.25 µg/mL (≈ 0.278 µM) | MIC [3]: 2.0 µg/mL (≈ 2.22 µM) | MIC [4]: 4.0 µg/mL (≈ 4.45 µM) | MIC [5]: 2.0 µg/mL (≈ 2.22 µM) | MIC [6]: 2.0 µg/mL (≈ 2.22 µM) | MIC [7]: 0.5 µg/mL (≈ 0.556 µM) | MIC [8]: 2.0 µg/mL (≈ 2.22 µM) | MIC [9]: 0.06 µg/mL (≈ 0.0667 µM) | MIC [10]: 0.25 µg/mL (≈ 0.278 µM) | MIC [11]: 0.25 µg/mL (≈ 0.278 µM) | MIC [12]: 0.25 µg/mL (≈ 0.278 µM) | MIC [13]: 0.13 µg/mL (≈ 0.145 µM) | Mutation frequency (S. aureus B83-1; 1 μg/ml): 1.5 × 10^−8 | Mutation frequency (S. aureus B83-1; 10 μg/ml): <1.8 × 10^−9 | Mutation frequency (S. aureus B83-1; 100 μg/ml): <1.8 × 10^−9 | toxicity (Oral toxicity in mice): did not show any toxicity | MIC Range [14]: 0.06 to 4.0 µg/mL | Mutation frequency (S. aureus 6097; 1 μg/ml): 4.0 × 10^−8 | Mutation frequency (S. aureus 6097; 10 μg/ml): <1.8 × 10^−10 | Mutation frequency (S. aureus 6097; 100 μg/ml): <1.8 × 10^−10

CO[C@H]1/C=C/O[C@@]2(C)Oc3c(C)c(O)c4c(O)c(c(/C=N/N5CCN(C)CC5)c(O)c4c3C2=O)NC(=O)/C(C)=C\C=C\[C@H](C)[C@H](O)[C@@H](C)[C@@H](O)[C@@H](C)[C@H](OC(C)=O)[C@@H]1C [Rifampin, reference compound]
MIC [1, 15]: 2 µg/mL (≈ 2.43 µM) | MIC [2, 15]: > 32 µg/mL | MIC [3, 15]: 4 µg/mL (≈ 4.86 µM) | MIC [4, 15]: > 32 µg/mL | MIC [5, 15]: > 32 µg/mL | MIC [6, 15]: 8 µg/mL (≈ 9.72 µM) | MIC [7, 15]: 32 µg/mL (≈ 38.9 µM) | MIC [8, 15]: > 32 µg/mL | MIC [9, 15]: 32 µg/mL (≈ 38.9 µM) | MIC [10, 15]: > 32 µg/mL | MIC [11, 15]: 4 µg/mL (≈ 4.86 µM) | MIC [12, 15]: > 32 µg/mL | MIC [13, 15]: > 32 µg/mL | Mutation frequency (S. aureus B83-1; 1 μg/ml): 3.7 × 10^−8 | Mutation frequency (S. aureus B83-1; 10 μg/ml): 4.5 × 10^−8 | Mutation frequency (S. aureus B83-1; 100 μg/ml): 1.9 × 10^−8 | Mutation frequency (S. aureus 6097; 1 μg/ml): 1.2 × 10^−8 | Mutation frequency (S. aureus 6097; 10 μg/ml): 2.0 × 10^−8 | Mutation frequency (S. aureus 6097; 100 μg/ml): 4.9 × 10^−9

Source: patent US6486161B1, “Use of rifamycin derivative for treating mastitis in a domestic animal” (priority 2000, dated 2002)
